Activity calls are given as the source filed them. The rule behind the calls is not given here.
Legend:
Felis catus [1] = experiment: In vivo inhibition of beta-1 adrenergic receptor in cat assessed as inhibition of isoproterenol-induced trachycardia at 200 ug/kg/min, iv after 30 mins; type: functional, organism-based
Felis catus [2] = experiment: In vivo inhibition of beta-1 adrenergic receptor in iv dosed cat assessed as inhibition of isoproterenol-induced trachycardia after 30 mins; type: functional; details: 0.5 h
Felis catus [3] = experiment: In vivo inhibition of beta-2 adrenergic receptor in iv dosed cat assessed as inhibition of isoproterenol-induced vasodepressor response after 30 mins; type: functional

Q: With `CCCc1ccccc1OCC(O)CNCCCSCC` (stereo unspecified) as the molecule, how does the inhibition (Felis catus [1]) read?
A: inactive

Q: Which inhibition (Felis catus [1]) does the source give for `Cc1ccc(SCCCNCC(O)COc2ccccc2[N+](=O)[O-])cc1` (stereo unspecified) here?
A: inactive

Q: Which results are given for `Cl.OC(CNCCSC1CCCCC1)COc1ccccc1` (stereo unspecified)?
A: ED50 (Felis catus [2]): 0.162 mg/kg; inhibition (INH) (Felis catus [3]): 0%

Q: Which inhibition (Felis catus [1]) does the source give for `Cc1cccc(OCC(O)CNCCSc2ccccc2)c1` (stereo unspecified) here?
A: inactive

Q: How did the ED50 (Felis catus [2]) turn out when `CC(C)(CSc1ccccc1)NCC(O)COc1ccccc1.O=C(O)C(=O)O` (stereo unspecified) was run?
A: 0.065 mg/kg

Q: And the “inhibition (INH)” value (Felis catus [3])?
A: 40%

Q: Which ED50 (Felis catus [2]) does the source give for `O=C(O)C(=O)O.OC(CNCCSCc1ccccc1)COc1ccccc1` (stereo unspecified) here?
A: 0.207 mg/kg

Q: Which results are given for `CCSCCCNCC(O)COc1ccccc1OC.O=C(O)C(=O)O` (stereo unspecified)?
A: ED50 (Felis catus [2]): 0.285 mg/kg; inhibition (INH) (Felis catus [3]): 70%

Q: How did the inhibition (Felis catus [1]) turn out when `CCSCCCNCC(O)COc1ccc(NC(C)=O)cc1` (stereo unspecified) was run?
A: inactive

Q: How did the ED50 (Felis catus [2]) turn out when `Cc1ccc([S+]([O-])CCNCC(O)COc2ccccc2)cc1` (stereo unspecified) was run?
A: 0.121 mg/kg

Q: What about the “inhibition (INH)” value (Felis catus [3]) of the same molecule?
A: 13%

Q: `Cc1ccccc1OCC(O)CNCCSc1ccccc1` (stereo unspecified) was tested. Which ED50 (Felis catus [2]) did it give?
A: 1.55 mg/kg

Q: What about the “inhibition (INH)” value (Felis catus [3]) of the same molecule?
A: 53%

Q: How did the ED50 (Felis catus [2]) turn out when `[O-][S+](CCNCC(O)COc1ccccc1)c1ccc(Cl)cc1` (stereo unspecified) was run?
A: 0.08 mg/kg

Q: And the “inhibition (INH)” value (Felis catus [3])?
A: 0%

Q: Which ED50 (Felis catus [2]) does the source give for `CC(C)(C[S+]([O-])c1ccccc1)NCC(O)COc1ccccc1.O=C(O)C(=O)O` (stereo unspecified) here?
A: 0.185 mg/kg

Q: And the “inhibition (INH)” value (Felis catus [3])?
A: 84%

Q: `CCSCCCNCC(O)COc1ccccc1Cl` (stereo unspecified) was tested. Which ED50 (Felis catus [2]) did it give?
A: 0.269 mg/kg

Q: What about the “inhibition (INH)” value (Felis catus [3]) of the same molecule?
A: 52%

Q: With `CCSCCCNCC(O)COc1ccc(OC)cc1` (stereo unspecified) as the molecule, how does the inhibition (Felis catus [1]) read?
A: inactive

Q: Which results are given for `CCSCCNCC(O)COc1ccccc1.Cl` (stereo unspecified)?
A: ED50 (Felis catus [2]): 0.332 mg/kg; inhibition (INH) (Felis catus [3]): 0%

Q: What does the source list for `O=[N+]([O-])c1ccccc1OCC(O)CNCCSCc1ccccc1` (stereo unspecified)?
A: ED50 (Felis catus [2]): 0.946 mg/kg; inhibition (INH) (Felis catus [3]): 0%

Q: How did the inhibition (Felis catus [1]) turn out when `Cc1ccccc1OCC(O)CNCCCSc1ccccc1` (stereo unspecified) was run?
A: inactive

Q: Which results are given for `O=C(O)C(=O)O.OC(CNCCSc1ccccc1)COc1ccccc1Cl` (stereo unspecified)?
A: ED50 (Felis catus [2]): 1.46 mg/kg; inhibition (INH) (Felis catus [3]): 0%

Q: With `COc1ccc(OCC(O)CNCCSc2ccccc2)cc1` (stereo unspecified) as the molecule, how does the inhibition (Felis catus [1]) read?
A: inactive

Q: For `CCSCCCNCC(O)COc1ccccc1[N+](=O)[O-].O=C(O)C(=O)O` (stereo unspecified), which ED50 (Felis catus [2]) is on record?
A: 0.13 mg/kg

Q: And the “inhibition (INH)” value (Felis catus [3])?
A: 12%

Q: `CCC(C)(C)CSCCCNCC(O)COc1ccccc1.O=C(O)C(=O)O` (stereo unspecified) was tested. Which ED50 (Felis catus [2]) did it give?
A: 0.083 mg/kg

Q: What about the “inhibition (INH)” value (Felis catus [3]) of the same molecule?
A: 0%

Q: With `O=C(O)C(=O)O.[O-][S+](CCNCC(O)COc1ccccc1)Cc1ccccc1` (stereo unspecified) as the molecule, how does the ED50 (Felis catus [2]) read?
A: 0.156 mg/kg

Q: What about the “inhibition (INH)” value (Felis catus [3]) of the same molecule?
A: 20%

Q: With `Cc1ccc(SCCNCC(O)COc2ccccc2)cc1` (stereo unspecified) as the molecule, how does the ED50 (Felis catus [2]) read?
A: 0.289 mg/kg

Q: What about the “inhibition (INH)” value (Felis catus [3]) of the same molecule?
A: 43%

Q: How did the ED50 (Felis catus [2]) turn out when `O=C(O)C(=O)O.OC(CNCCCSC1CCCCC1)COc1ccccc1` (stereo unspecified) was run?
A: 0.781 mg/kg

Q: And the “inhibition (INH)” value (Felis catus [3])?
A: 37%

Q: For `CCSCCCNCC(O)COc1ccc(CC(N)=O)cc1` (stereo unspecified), which inhibition (Felis catus [1]) is on record?
A: inactive

Q: Which inhibition (Felis catus [1]) does the source give for `CCSCCCNCC(O)COc1ccc([N+](=O)[O-])cc1` (stereo unspecified) here?
A: inactive

Q: What does the source list for `CC[S+]([O-])CCNCC(O)COc1ccccc1.O=C(O)C(=O)O` (stereo unspecified)?
A: ED50 (Felis catus [2]): 0.195 mg/kg; inhibition (INH) (Felis catus [3]): 10%

Q: Which ED50 (Felis catus [2]) does the source give for `CC(CSc1ccccc1)NCC(O)COc1ccccc1.O=C(O)C(=O)O` (stereo unspecified) here?
A: 0.016 mg/kg

Q: And the “inhibition (INH)” value (Felis catus [3])?
A: 0%

Q: Which inhibition (Felis catus [1]) does the source give for `OC(CNCCSCc1ccccc1)COc1ccccc1Cl` (stereo unspecified) here?
A: inactive

Q: Which results are given for `O=C(O)C(=O)O.[O-][S+](CCCNCC(O)COc1ccccc1)C1CCCCC1` (stereo unspecified)?
A: ED50 (Felis catus [2]): 0.162 mg/kg; inhibition (INH) (Felis catus [3]): 68%

Q: How did the ED50 (Felis catus [2]) turn out when `CC(NCC(O)COc1ccccc1)C(C)Sc1ccccc1.O=C(O)C(=O)O` (stereo unspecified) was run?
A: 0.195 mg/kg

Q: What about the “inhibition (INH)” value (Felis catus [3]) of the same molecule?
A: 32%

Q: With `O=C(O)C(=O)O.O=[N+]([O-])c1ccccc1OCC(O)CNCCCS(=O)(=O)C1CCCCC1` (stereo unspecified) as the molecule, how does the ED50 (Felis catus [2]) read?
A: 1.46 mg/kg

Q: And the “inhibition (INH)” value (Felis catus [3])?
A: 75%

Q: Which ED50 (Felis catus [2]) does the source give for `OC(CNCCSc1ccccc1)COc1ccccc1` (stereo unspecified) here?
A: 0.138 mg/kg

Q: What about the “inhibition (INH)” value (Felis catus [3]) of the same molecule?
A: 13%

Q: With `Cc1ccc(SCCCNCC(O)COc2ccccc2)cc1.Cl` (stereo unspecified) as the molecule, how does the ED50 (Felis catus [2]) read?
A: 1.26 mg/kg

Q: And the “inhibition (INH)” value (Felis catus [3])?
A: 11%

Q: How did the inhibition (Felis catus [1]) turn out when `O=[N+]([O-])c1ccccc1OCC(O)CNCCCSC1CCCCC1` (stereo unspecified) was run?
A: inactive

Q: How did the inhibition (Felis catus [1]) turn out when `Cc1ccccc1OCC(O)CNCCSCc1ccccc1` (stereo unspecified) was run?
A: inactive

Q: What does the source list for `[O-][S+](CCNCC(O)COc1ccccc1)c1ccccc1` (stereo unspecified)?
A: ED50 (Felis catus [2]): 0.044 mg/kg; inhibition (INH) (Felis catus [3]): 0%

Q: Which inhibition (Felis catus [1]) does the source give for `N#Cc1ccccc1OCC(O)CNCCSc1ccccc1` (stereo unspecified) here?
A: inactive

Q: With `CC(C)SCCCNCC(O)COc1ccccc1.O=C(O)C(=O)O` (stereo unspecified) as the molecule, how does the ED50 (Felis catus [2]) read?
A: 0.333 mg/kg

Q: And the “inhibition (INH)” value (Felis catus [3])?
A: 0%

Q: With `CCSCCCNCC(O)COc1ccccc1.O=C(O)C(=O)O` (stereo unspecified) as the molecule, how does the ED50 (Felis catus [2]) read?
A: 0.838 mg/kg

Q: What about the “inhibition (INH)” value (Felis catus [3]) of the same molecule?
A: 14%

Q: With `CCSCCCNCC(O)COc1ccccc1Br.O=C(O)C(=O)O` (stereo unspecified) as the molecule, how does the ED50 (Felis catus [2]) read?
A: 0.212 mg/kg

Q: What about the “inhibition (INH)” value (Felis catus [3]) of the same molecule?
A: 0%

Q: How did the ED50 (Felis catus [2]) turn out when `C=CCc1ccccc1OCC(O)CNCCCSCC.O=C(O)C(=O)O` (stereo unspecified) was run?
A: 0.72 mg/kg

Q: And the “inhibition (INH)” value (Felis catus [3])?
A: 65%

Q: What does the source list for `CC(CSc1ccccc1)NCC(O)COc1ccccc1Cl.O=C(O)C(=O)O` (stereo unspecified)?
A: ED50 (Felis catus [2]): 0.058 mg/kg; inhibition (INH) (Felis catus [3]): 60%

Q: For `Cc1ccccc1OCC(O)CNCCOc1ccc(C(N)=O)cc1` (stereo unspecified) [TOLAMOLOL], which “inhibition (INH)” value (Felis catus [3]) is on record?
A: 81%

Q: `CCSCCNCC(O)COc1ccccc1[N+](=O)[O-]` (stereo unspecified) was tested. Which inhibition (Felis catus [1]) did it give?
A: inactive

Q: Which results are given for `O=S(=O)(CCNCC(O)COc1ccccc1)c1ccccc1` (stereo unspecified)?
A: ED50 (Felis catus [2]): 1.33 mg/kg; inhibition (INH) (Felis catus [3]): 53%

Q: How did the ED50 (Felis catus [2]) turn out when `CC(CNCC(O)COc1ccccc1)Sc1ccccc1.O=C(O)C(=O)O` (stereo unspecified) was run?
A: 0.559 mg/kg

Q: What about the “inhibition (INH)” value (Felis catus [3]) of the same molecule?
A: 18%

Q: For `OC(CNCCSc1ccc(Cl)cc1)COc1ccccc1` (stereo unspecified), which inhibition (Felis catus [1]) is on record?
A: inactive

Q: For `CCSCCCNCC(O)COc1ccccc1C#N.O=C(O)C(=O)O` (stereo unspecified), which ED50 (Felis catus [2]) is on record?
A: 0.135 mg/kg

Q: And the “inhibition (INH)” value (Felis catus [3])?
A: 0%

Q: Which results are given for `Cc1ccccc1OCC(O)CNCC[S+]([O-])c1ccccc1.O=C(O)C(=O)O` (stereo unspecified)?
A: ED50 (Felis catus [2]): 0.799 mg/kg; inhibition (INH) (Felis catus [3]): 54%

Q: With `CCSCCNCC(O)COc1ccccc1C#N.O=C(O)C(=O)O` (stereo unspecified) as the molecule, how does the ED50 (Felis catus [2]) read?
A: 0.2 mg/kg

Q: For `O=[N+]([O-])c1ccccc1OCC(O)CNCCC[S+]([O-])C1CCCCC1` (stereo unspecified), which inhibition (Felis catus [1]) is on record?
A: inactive

Q: How did the ED50 (Felis catus [2]) turn out when `Cl.OC(CNCCCSc1ccccc1)COc1ccccc1` (stereo unspecified) was run?
A: 0.415 mg/kg

Q: With `COc1ccccc1OCC(O)CNCCSc1ccccc1` (stereo unspecified) as the molecule, how does the inhibition (Felis catus [1]) read?
A: inactive

Q: What does the source list for `COc1ccccc1SCCNCC(O)COc1ccccc1.O=C(O)C(=O)O` (stereo unspecified)?
A: ED50 (Felis catus [2]): 0.482 mg/kg; inhibition (INH) (Felis catus [3]): 24%

Q: For `O=C(O)C(=O)O.O=[N+]([O-])c1ccccc1OCC(O)CNCCSC1CCCCC1` (stereo unspecified), which ED50 (Felis catus [2]) is on record?
A: 0.427 mg/kg

Q: What about the “inhibition (INH)” value (Felis catus [3]) of the same molecule?
A: 37%

Source: ChEMBL document CHEMBL3272248, “beta-Adrenergic blocking agents. 18. 1-(Aryloxy)-3-(arylthioalkylamino)propan-2-ols and 1-substituted alkylthioamino-3-(aryloxy)propan-2-ols” (1978)
